Results: patent US5041552A, “Amino acid derivatives with angiotensin II antagonist properties” (Warner-Lambert Company, priority 1990, dated 1991)

These compounds were tested against T1, angiotensin II receptor (rat liver membranes) (Rattus norvegicus, UniProt P25095) (assay: Receptor Binding of Angiotensin II (RBAT): inhibition of tritiated angiotensin II binding to rat liver membranes). Settings: in vitro, read-out: RBAT IC50 (concentration required to displace 50% of the specifically bound tritiated angiotensin II).
T1 construct: rat liver membranes; from tissue; host or cells: rat liver membranes
T1 sequence (P25095 1-359): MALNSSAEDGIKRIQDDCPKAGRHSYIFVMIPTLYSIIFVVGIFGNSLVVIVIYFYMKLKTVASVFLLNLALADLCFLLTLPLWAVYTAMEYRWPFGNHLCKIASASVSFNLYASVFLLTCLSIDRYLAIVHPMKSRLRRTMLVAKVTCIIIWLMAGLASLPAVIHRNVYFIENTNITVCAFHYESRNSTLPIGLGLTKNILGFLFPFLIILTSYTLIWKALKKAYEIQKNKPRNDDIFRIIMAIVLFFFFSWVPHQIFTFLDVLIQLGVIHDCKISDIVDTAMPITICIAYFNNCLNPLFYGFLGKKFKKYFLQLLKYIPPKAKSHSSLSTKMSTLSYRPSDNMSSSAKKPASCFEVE
Procedure: The effectiveness of the compounds of the instant invention is determined by a test (RBAT) entitled Receptor Binding of Angiotensin II. In this in vitro test the inhibition of tritiated angiotensin II binding to rat liver membranes is measured.
*The IC50 is a concentration required to displace 50% of the specifi
bound tritiated angiotensin II.

Compared with `CCCCc1ncc(CO)n1Cc1ccc(NC(=O)[C@H](Cc2ccc(O)cc2)NC(=O)OC(C)(C)C)cc1` [Example 6, (S)-[2-[[4-[[2-butyl-5-(hydroxymethyl)-1H-imidazol-1-yl]methyl]phenyl]amino]-1-[(4-hydroxyphenyl)methyl]-2-oxoethyl]-carbamic acid, 1,1-dimethylethylester], `CCCCc1nc(Cl)c(CO)n1Cc1ccc(NC(=O)[C@H](Cc2ccc(O)cc2)NC(=O)OC(C)(C)C)cc1` [6 (4-Chloro), (S)-[2-[[4-[[2-Butyl-4-chloro-5-(hydroxymethyl)-1H-imidazol-1-yl]methyl]phenyl]amino]-1-[(4-hydroxyphenyl)methyl]-2-oxoethyl]-carbamic acid, 1,1-dimethylethyl ester] is 1.5-fold lower in IC50: 4.5 µM for the first, 3 µM for the second. The second is the more potent here.

First: CCCCc1nc(Cl)c(CO)n1Cc1ccc(NC(=O)N2CCC[C@H]2C(=O)OC)cc1 [Example 18, 1-[[4-[[2-Butyl-4-chloro-5-(hydroxymethyl)-1H-imidazol-1-yl]methyl]phenyl]amino]carbonyl-2-pyrrolidinecarboxylic acid, methyl ester]
Second: CCCCc1nc(Cl)c(CO)n1Cc1ccc(NC(=O)C(NC(=O)OC(C)(C)C)C(=O)O)cc1 (racemic) [Example 11]
The IC50 of the first is higher: over 10 µM for the first, 6 µM for the second. The second is the more potent here.

Compared with `CCCCc1nc(Cl)c(CO)n1Cc1ccc(NC(=O)C(NC(=O)OCc2ccccc2)C(=O)O)cc1` (racemic) [Example 13, (RS)-3-[[4-[[2-Butyl-4-chloro-5-(hydroxymethyl)-1H-imidazol-1-yl-methyl]phenyl]amino]-3-oxo-2[(phenyl-methoxy)-carbonyl]amino]-propanoic acid], `CCCCc1nc(Cl)c(CO)n1Cc1ccc(NC(=O)[C@H](CC#N)NC(=O)OCc2ccccc2)cc1` [Example 5, (S)-[2-[[4-[[2-Butyl-4-chloro-5-(hydroxymethyl)-1H-imidazol-1-yl]methyl]phenyl]amino]-1-(cyanomethyl)-2-oxoethyl]-carbamic acid, phenylmethyl ester] is 3.3-fold lower in IC50: 10 µM for the first, 3 µM for the second.

`CCCCc1nc(Cl)c(CO)n1Cc1ccc(NC(=O)[C@H](Cc2ccccc2)NS(=O)(=O)c2ccccc2)cc1` [Example 17] and `CCCCc1nc(Cl)c(CO)n1Cc1ccc(NC(=O)[C@H](Cc2ccccc2)NS(=O)(=O)N2CCOCC2)cc1` [Example 16] are within 1.5-fold of each other in IC50: 3.6 µM for the first, 2.5 µM for the second.

Compared with `CCCCc1nc(Cl)c(CO)n1Cc1ccc(NC(=O)[C@H](CC(=O)OC(C)(C)C)NC(=O)OCc2ccccc2)cc1` [Example 7], `CCSc1nnc(CO)n1Cc1ccc(NC(=O)[C@H](CC(=O)O)NC(=O)OCc2ccccc2)cc1` [Example 9] is higher in IC50: 4 µM for the first, over 10 µM for the second. The first is the more potent here.
